According to ChEMBL document CHEMBL6127016, “Design and synthesis of dual functional NBD-fluorophore-incorporated naphthalene diimide derivatives as G-quadruplex ligands” (Bioorg Med Chem Lett, 2024):
Calls of active or inactive are those of the source. The rule behind the calls is not given here.

Legend:
[1] = tested on: MIA PaCa-2; assay: Cytotoxicity against human MIA PaCa-2 cells assessed as inhibition of cell growth by CellTiter-Glo assay; type: functional, cell-based
[2] = tested on: Quadruplex DNA; assay: Binding affinity to human telomeric G-quadruplex HT21 DNA assessed as increase in fluorescence intensity at 5 uM by fluorescence emission spectra analysis; type: nucleic-acid assay
[3] = target: Quadruplex DNA; assay: Binding affinity to human telomeric G-quadruplex HT21 DNA assessed as dissociation constant by fluorescence titration spectra analysis; type: nucleic-acid assay
[4] = tested on: Quadruplex DNA; assay: Binding affinity to human telomeric G-quadruplex HT21 DNA assessed as increase in CD signal at 15 uM at 290 nm wavelength by circular dichroism spectroscopic analysis; type: nucleic-acid assay
[5] = tested on: Quadruplex DNA; assay: Binding affinity to human telomeric G-quadruplex HT21 DNA assessed as increase in CD signal at 15 uM at 235 nm wavelength by circular dichroism spectroscopic analysis; type: nucleic-acid assay
[6] = tested on: Quadruplex DNA; assay: Binding affinity to human telomeric G-quadruplex HT21 DNA assessed as increase in CD signal at 15 uM at 250 nm wavelength by circular dichroism spectroscopic analysis; type: nucleic-acid assay

| Activity [2] | Kd [3] [nM] | Activity [4] | Activity [5] | Activity [6] | Structure (SMILES) | IC50 [1] [nM] |
| --- | --- | --- | --- | --- | --- | --- |
| Active | 600 | – | – | – | O=C(CNc1cc2c3c(ccc4c3c1C(=O)N(CCCN1CCOCC1)C4=O)C(=O)N(CCCN1CCOCC1)C2=O)NCC1CCN(c2ccc([N+](=O)[O-])c3nonc23)CC1 | 364 |
| inactive | – | – | – | – | O=C1c2ccc3c4c(c(NCC5CCN(c6ccc([N+](=O)[O-])c7nonc67)CC5)cc(c24)C(=O)N1CCCN1CCOCC1)C(=O)N(CCCN1CCOCC1)C3=O | 359 |
| Active | 1720 | Active | inactive | inactive | O=C1c2ccc3c4c(c(NCCN5CCN(c6ccc([N+](=O)[O-])c7nonc67)CC5)cc(c24)C(=O)N1CCCN1CCOCC1)C(=O)N(CCCN1CCOCC1)C3=O | 77.9 |
| – | – | – | – | – | O=C1c2ccc3c4c(c(NCCN5CCCC5)cc(c24)C(=O)N1CCCN1CCOCC1)C(=O)N(CCCN1CCOCC1)C3=O | 9.6 |
